Tests used:
Treponema palladium = conditions: Thomas et al., 1985b; cited from earlier work
spirochetes = conditions: cited from earlier work
Trypanosoma cruzi = conditions: Ouaissi et al., 1986; cited from earlier work
Human fibronectin = Human fibronectin (human, UniProt P02751, ^125 I-labeled (chloramine T iodination)); test: synthetic peptide; inhibition of 125I-HFN binding to S. aureus 8325-4 cells

Molecule: RGDS
- prevention of fibronectin binding to Treponema palladium (Treponema palladium): Binding was also prevented
- attachment of spirochetes to cultured human cells (spirochetes): blocked the attachment
- prevention of fibronectin binding to Trypanosoma cruzi (Trypanosoma cruzi): Binding was also prevented

Molecule: QFGGHNSVDFEEDT [Peptide S20-33]
- binding result (Human fibronectin): no binding

Reference: US5440014A, “Fibronectin binding peptide” (priority 1990, dated 1995)
